From US20060166989A1, “2-naphthamide derivatives” (Bayer Healthcare AG, priority 2002, published 2006)

How the values were obtained:
IP receptor = molecular target: T1, IP receptor (Homo sapiens, UniProt P43119); assay: Iloprost-induced cAMP production assay in HEL cells (Assay 2); format: cell-based; settings: read-out: Activity grade assay 2
T1 construct: HEL cells were collected with centrifugation and washed with cAMP assay buffer; host or cells: HEL 92.1.7 human erythroleukemia cells
Procedure: [Iloprost-Induced cAMP Production Assay in HEL Cells] (Assay 2)
HEL cells were collected with centrifugation and washed with cAMP assay buffer (CAB: Hank's balanced salt solution, 17 mM Hepes, 0.1% bovine serum albumin, 1 mM IBMX, 0.4% DMSO, and 1 mM L-ascorbic acid sodium salt (pH 7.4)). Cells were suspended at the density of 2.5×10^5 cells/ml in CAB, and twenty thousand cells in 80 μl aliquot of cell suspension were put in a well of 96 well plate (Falcon). Then, 10 μl of compound solution diluted with 1% DMSO in CAB or buffer alone was added. The plate was incubated at 37° C. for 30 min. Then, another 10 μl containing 100 nM iloprost in CAB or buffer alone was added and further incubated at 37° C. for 30 min. cAMP content in the well was measured by a cAMP ELISA kit (Applied Biosystems, USA).
Results of Iloprost-induced cAMP production assay (Assay2) are shown in Examples and tables of the Examples below. For practical reasons, the compounds are grouped in three classes of activity as follows: A(=or<)0.1μM<B(=or<)1μM<C

T1 sequence (P43119 whole entry): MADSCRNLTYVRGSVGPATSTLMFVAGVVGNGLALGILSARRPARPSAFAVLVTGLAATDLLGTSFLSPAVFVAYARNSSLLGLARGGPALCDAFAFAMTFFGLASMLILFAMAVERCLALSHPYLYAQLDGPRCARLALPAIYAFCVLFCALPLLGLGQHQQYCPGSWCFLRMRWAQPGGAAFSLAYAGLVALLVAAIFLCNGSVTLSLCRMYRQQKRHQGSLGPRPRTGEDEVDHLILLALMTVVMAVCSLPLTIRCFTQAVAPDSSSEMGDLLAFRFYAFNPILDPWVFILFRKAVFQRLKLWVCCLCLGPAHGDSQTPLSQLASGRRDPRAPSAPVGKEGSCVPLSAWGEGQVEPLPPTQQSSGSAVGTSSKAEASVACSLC

| Structure (SMILES) | melting point | IC50 (IP receptor) |
| --- | --- | --- |
| CC(Cc1ccccc1)(NC(=O)c1ccc2cc(OCc3ccccc3)ccc2c1)C(=O)O (stereo not drawn) [Example 1-84] | 184 °C | 0.1 to 1 µM |
| O=C(NC(Cc1ccccc1)C(=O)O)c1ccc2cc(OCc3ccc(C(F)(F)F)cc3)ccc2c1 (stereo not drawn) [Example 1-28] | 224 °C | > 1 µM |
| COc1cccc(COc2ccc3cc(C(=O)NC(Cc4ccccc4)C(=O)O)ccc3c2)c1OC (stereo not drawn) [Example 1-38] | 161 °C | > 1 µM |
| COc1ccc(CC(NC(=O)c2ccc3cc(OCc4ccccc4)ccc3c2)C(=O)O)cc1 (stereo not drawn) [Example 1-16] | – | < 0.1 µM |
| O=C(NC(Cc1ccccc1)C(=O)O)c1ccc2cc(OCc3cccc4ccccc34)ccc2c1 (stereo not drawn) [Example 1-70] | 220 °C | 0.1 to 1 µM |
| O=C(NC(Cc1ccccc1)C(=O)O)c1ccc2cc(OCCn3ccnc3)ccc2c1 (stereo not drawn) [Example 1-86] | 172 °C (dec.) | 0.1 to 1 µM |
| CCCCOc1cccc(COc2ccc3cc(C(=O)NC(Cc4ccccc4)C(=O)O)ccc3c2)c1 (stereo not drawn) [Example 1-90] | 172 °C | 0.1 to 1 µM |
| CCCOc1cccc(COc2ccc3cc(C(=O)NC(Cc4ccccc4)C(=O)O)ccc3c2)c1 (stereo not drawn) [Example 1-92] | 173 °C | 0.1 to 1 µM |
| COc1ccc(COc2ccc3cc(C(=O)NC(Cc4ccccc4)C(=O)O)ccc3c2)cc1 (stereo not drawn) [Example 1-31] | 188 °C | > 1 µM |
| O=C(NC(Cc1c[nH]c2ccc(F)cc12)C(=O)O)c1ccc2cc(OCc3ccccc3)ccc2c1 (stereo not drawn) [Example 1-79] | 236 to 238 °C (dec.) | < 0.1 µM |
| O=C(NC(Cc1ccccc1)C(=O)O)c1ccc2cc(OCc3cccc(C(F)(F)F)c3)ccc2c1 (stereo not drawn) [Example 1-27] | 158 °C | > 1 µM |
| O=C(NC(Cc1ccccc1)C(=O)O)c1ccc2cc(OCc3ccc(Cl)c(Cl)c3)ccc2c1 (stereo not drawn) [Example 1-32] | 202 °C | 0.1 to 1 µM |
| O=C(NC(Cc1ccccc1)C(=O)O)c1ccc2cc(OCCc3ccncc3)ccc2c1 (stereo not drawn) [Example 1-83] | 190 °C | < 0.1 µM |
| O=C(NC(Cc1ccc(N2CCOCC2)cc1)C(=O)O)c1ccc2cc(OCc3ccccc3)ccc2c1 (stereo not drawn) [Example 1-76] | 216 to 218 °C (dec.) | > 1 µM |
| O=C(NC(Cc1ccccc1)C(=O)O)c1ccc2cc(OCc3cccc(OCC4CCCCC4)c3)ccc2c1 (stereo not drawn) [Example 1-88] | 180 °C | > 1 µM |
| O=C(NC(Cc1c[nH]c2ccc(O)cc12)C(=O)O)c1ccc2cc(OCc3ccccc3)ccc2c1 (stereo not drawn) [Example 1-49] | 261 to 262 °C (dec.) | < 0.1 µM |
| COc1cc(CC(NC(=O)c2ccc3cc(OCc4ccccc4)ccc3c2)C(=O)O)ccc1O (stereo not drawn) [Example 1-17] | – | < 0.1 µM |
| Cc1ccc(COc2ccc3cc(C(=O)NC(Cc4ccccc4)C(=O)O)ccc3c2)cc1C (stereo not drawn) [Example 1-58] | 189 °C | 0.1 to 1 µM |
| O=C(NC(Cc1cccc(C(F)(F)F)c1)C(=O)O)c1ccc2cc(OCc3ccccc3)ccc2c1 (stereo not drawn) [Example 1-14] | – | < 0.1 µM |
| O=C(NC(Cc1ccccc1)C(=O)O)c1ccc2cc(OCCn3cccc3)ccc2c1 (stereo not drawn) [Example 1-11] | 168 to 169 °C | < 0.1 µM |
| O=C(NC(Cc1ccccc1)C(=O)O)c1ccc2cc(OCc3ccc(F)cc3F)ccc2c1 (stereo not drawn) [Example 1-59] | 199 °C | 0.1 to 1 µM |
| O=C(NC(CO)C(=O)O)c1ccc2cc(OCc3ccccc3)ccc2c1 (stereo not drawn) [Example 1-2] | 196 to 198 °C | > 1 µM |
| O=C(NC(Cc1ccccc1)C(=O)O)c1ccc2cc(OCc3ccccc3C(F)(F)F)ccc2c1 (stereo not drawn) [Example 1-26] | 167 °C | 0.1 to 1 µM |
| CCCCOc1ccc2cc(C(=O)NC(Cc3ccccc3)C(=O)O)ccc2c1 (stereo not drawn) [Example 1-65] | 209 °C | 0.1 to 1 µM |
| O=C(NC(Cc1cccs1)C(=O)O)c1ccc2cc(OCc3ccccc3)ccc2c1 (stereo not drawn) [Example 1-44] | 200 to 202 °C | < 0.1 µM |
| O=C(NC(Cc1ccccc1)C(=O)O)c1ccc2cc(OCCCn3cccc3)ccc2c1 (stereo not drawn) [Example 1-63] | 195 °C | 0.1 to 1 µM |
| O=C(NC(Cc1ccccc1)C(=O)O)c1ccc2cc(OCc3ccc(Cl)cc3Cl)ccc2c1 (stereo not drawn) [Example 1-42] | 202 °C | > 1 µM |
| O=C(NC(C(=O)O)C(O)c1ccccc1)c1ccc2cc(OCc3ccccc3)ccc2c1 (stereo not drawn) [Example 1-18] | – | < 0.1 µM |
| O=C(NC(Cc1ccccc1C(F)(F)F)C(=O)O)c1ccc2cc(OCc3ccccc3)ccc2c1 (stereo not drawn) [Example 1-13] | – | 0.1 to 1 µM |

Second part, the compound after the results:

| melting point | IC50 (IP receptor) | Structure (SMILES) |
| --- | --- | --- |
| 252 °C (dec.) | > 1 µM | O=C(NC(Cc1ccccc1)C(=O)O)c1ccc2cc(OCc3ccc[n+]([O-])c3)ccc2c1 (stereo not drawn) [Example 1-87] |
| 180 to 182 °C | < 0.1 µM | O=C(NC(Cc1ccccc1)C(=O)O)c1ccc2cc(OCc3ccccc3F)ccc2c1 (stereo not drawn) [Example 1-7] |
| 226 °C | 0.1 to 1 µM | O=C(NC(Cc1ccccc1)C(=O)O)c1ccc2cc(OCc3ccc(Cl)cc3)ccc2c1 (stereo not drawn) [Example 1-25] |
| 202 to 204 °C | < 0.1 µM | O=C(NC(Cc1ccc(Cl)cc1)C(=O)O)c1ccc2cc(OCc3ccccc3)ccc2c1 (stereo not drawn) [Example 1-20] |
| 194 °C | < 0.1 µM | O=C(NC(Cc1ccccc1)C(=O)O)c1ccc2cc(OCc3cccc(Br)c3)ccc2c1 (stereo not drawn) [Example 1-52] |
| 206 to 207 °C | < 0.1 µM | O=C(NC(Cc1ccccc1)C(=O)O)c1ccc2cc(OCc3ccccc3Br)ccc2c1 (stereo not drawn) [Example 1-51] |
| 217 °C | < 0.1 µM | O=C(NC(Cc1ccccc1)C(=O)O)c1ccc2cc(OCc3cccnc3)ccc2c1 (stereo not drawn) [Example 1-8] |
| 187 °C | < 0.1 µM | O=C(NC(Cc1ccccc1)C(=O)O)c1ccc2cc(OCc3cccc(Cl)c3)ccc2c1 (stereo not drawn) [Example 1-24] |
| 215 °C | < 0.1 µM | O=C(NC(Cc1ccccc1)C(=O)O)c1ccc2cc(OCc3ccccc3Cl)ccc2c1 (stereo not drawn) [Example 1-23] |
| 184 to 185 °C | < 0.1 µM | Cc1cccc(COc2ccc3cc(C(=O)NC(Cc4ccccc4)C(=O)O)ccc3c2)c1 (stereo not drawn) [Example 1-55] |
| 170 to 172 °C | 0.1 to 1 µM | CC(Oc1ccc2cc(C(=O)NC(Cc3ccccc3)C(=O)O)ccc2c1)c1ccccc1 (stereo not drawn) [Example 1-60] |
| 212 °C | 0.1 to 1 µM | Cc1ccc(COc2ccc3cc(C(=O)NC(Cc4ccccc4)C(=O)O)ccc3c2)cc1 (stereo not drawn) [Example 1-56] |
| 260 to 262 °C (dec.) | 0.1 to 1 µM | O=C(NC(Cc1ccncc1)C(=O)O)c1ccc2cc(OCc3ccccc3)ccc2c1 (stereo not drawn) [Example 1-69] |
| 226 to 227 °C | < 0.1 µM | O=C(NC(Cc1ccc2ccccc2c1)C(=O)O)c1ccc2cc(OCc3ccccc3)ccc2c1 (stereo not drawn) [Example 1-67] |
| 204 °C | < 0.1 µM | Cc1ccccc1COc1ccc2cc(C(=O)NC(Cc3ccccc3)C(=O)O)ccc2c1 (stereo not drawn) [Example 1-54] |
| 169 °C | < 0.1 µM | COc1ccccc1COc1ccc2cc(C(=O)NC(Cc3ccccc3)C(=O)O)ccc2c1 (stereo not drawn) [Example 1-29] |
| 232 °C | > 1 µM | O=C(NC(Cc1ccccc1)C(=O)O)c1ccc2cc(OCc3ccc(Br)cc3)ccc2c1 (stereo not drawn) [Example 1-53] |
| – | > 1 µM | O=C(N[C@@H](Cc1ccccc1)C(=O)O)c1ccc2cc(OCc3ccccc3)ccc2c1 [Example 2-2, N-[6-(benzyloxy)-2-naphthoyl]-L-phenylalanine] |
| 214 to 216 °C | < 0.1 µM | O=C(NC(Cc1ccc(F)cc1)C(=O)O)c1ccc2cc(OCc3ccccc3)ccc2c1 (stereo not drawn) [Example 1-22] |
| 163 °C | < 0.1 µM | COc1cccc(COc2ccc3cc(C(=O)NC(Cc4ccccc4)C(=O)O)ccc3c2)c1 (stereo not drawn) [Example 1-30] |
| 179 to 180 °C | > 1 µM | O=C(N[C@@H](Cc1ccccc1)C(=O)O)c1ccc2cc(Oc3ccccc3)ccc2c1 [Example 3-1, N-(6-phenoxy-2-naphthoyl)phenylalanine] |
| 179 °C | < 0.1 µM | O=C(N[C@H](Cc1ccccc1)C(=O)O)c1ccc2cc(OCc3ccccc3)ccc2c1 [Example 2-1, N-[6-(benzyloxy)-2-naphthoyl]-D-phenylalanine] |
| 160 °C | < 0.1 µM | CC(COc1ccc2cc(C(=O)NC(Cc3ccccc3)C(=O)O)ccc2c1)c1ccccc1 (stereo not drawn) [Example 1-94] |
| 188 to 191 °C | < 0.1 µM | O=C(NC(Cc1cccc(F)c1)C(=O)O)c1ccc2cc(OCc3ccccc3)ccc2c1 (stereo not drawn) [Example 1-21] |
| 219 to 220 °C | < 0.1 µM | O=C(NC(Cc1ccc(Br)cc1)C(=O)O)c1ccc2cc(OCc3ccccc3)ccc2c1 (stereo not drawn) [Example 1-45] |
| 230 °C | < 0.1 µM | O=C(N[C@@H](Cc1ccccc1)C(=O)O)c1ccc2cc(OCc3ccccc3)ccc2c1 (single isomer, unassigned) [Example 1-1, N-(6-Benzyloxy-2-naphthoyl)phenylalanine] |
| – | < 0.1 µM | O=C(NC(Cc1c[nH]c2ccccc12)C(=O)O)c1ccc2cc(OCc3ccccc3)ccc2c1 (stereo not drawn) [Example 1-15] |
